From ChEMBL document CHEMBL1127154, “Azido-functionalized thiourea analogues acting as efficient photoaffinity probes for the urea channel” (1993)

Tests used:
[1] = Compound was tested for its ability to inhibit the urea facilitated transport in the urinary bladder of female frog, activity expressed as percent inhibition.; type: functional
frog [2] = test: Concentration in urinary bladder of female frog.; type: functional, tissue-based
[3] = Compound was tested for its ability to inhibit the urea facilitated transport in the urinary bladder of female frog after illumination, activity expressed as irreversibility of illumination.; type: functional
frog [4] = test: Concentration in urinary bladder of female frog; very low solubility; type: functional, tissue-based

## [N-]=[N+]=Nc1ccc(/N=C(/N)S)cc1
[1]
  Inhibition: 25%
Frog [2]
  Concentration: 500 µM
[3]
  Irreversibility: 100%

## C/N=C(\S)Nc1ccc(Cl)c(N=[N+]=[N-])c1
[1]
  Inhibition: 50%
Frog [2]
  Concentration: 31.6 µM
[3]
  Irreversibility: 100%

## [N-]=[N+]=Nc1ccc(NC(=S)Nc2ccc(Cl)c(Cl)c2)cc1
Frog [4]
  Concentration: very low solubility

## C/N=C(\S)Nc1nc2cc(N=[N+]=[N-])ccc2[nH]1
[1]
  Inhibition: 29%
Frog [2]
  Concentration: 500 µM
[3]
  Irreversibility: 100%

## [N-]=[N+]=Nc1cc(/N=C(/N)S)ccc1Cl
[1]
  Inhibition: 50%
Frog [2]
  Concentration: 60.3 µM
[3]
  Irreversibility: 100%
